Experimental data: patent US20080096967A1, “Formulations for Injection of Catecholic Butanes, Including Ndga Compounds, Into Animals” (priority 2005, published 2008)

How the values were obtained:
[1] = Solubility of M4N in non-ionic surfactants (Table 21, visual inspection); assay type: physicochemical
Description: A 10 mL solution of M4N at a concentration of about 60 mg/mL in Tween® 20 was made as follows. About 10 mL of Tween® 20 were added to a glass beaker containing a stir bar. The beaker was placed on a magnetic plate and the stir bar was set to stir at medium speed. About 600 mg of M4N were slowly added to the Tween® 20 in the center of the beaker with the aid of a spatula to prevent M4N from sticking to the beaker wall. The M4N/Tween® 20 mixture was stirred for 2 hr or until all M4N had dissolved or was uniformly suspended without any clumps being present. The M4N/Tween® 20 mixture was heated at about 60° C. for about 30 min. (or longer if a larger volume of solution was desired, for example, 1 hr at 60° C. for 500 mL of the M4N/Tween® 20 mixture), or longer as need to ensure complete dissolution of M4N. […] The final M4N/Tween® 20 solution was stored at room temperature and was kept protected from light. If crystals were to form during storage, the M4N/Tween® 20 solution could be heated again at 60° C. for about 1 hr, with stirring, on a hot magnetic plate or until all M4N was dissolved back in solution.
This process may be scaled up or down to obtain the requisite volume or concentration of M4N and the heating temperature may be increased or decreased to achieve dissolution of M4N. Formulations containing M4N in other non-ionic surfactant, ionic surfactants or amphiphilic molecules may be similarly made, such as, for example, by substituting Tween® 20 in the process described above with Tween® 80, other solubilizing agents, and combinations thereof.

[2] = system: C-33A, an HPV-negative human cervical cancer cell line; experiment: Cell proliferation and cell death, trypan blue exclusion, C-33A cells; assay type: cell-based; details: for Proliferation Rate: treated/untreated cells
Description: M4N in 10% (w/v) HP-β-CD and 25% (v/v) PEG 300 (hereafter, the “CPE formulation”), M4N in 30% (w/v) HP-β-CD and 25% (v/v) PEG 300 (hereafter, the “CPE 25/30 formulation”) and M4N in 27% (w/v) HP-β-CD and 33% (v/v) PEG 300 (hereafter, the “CPE 33/27 formulation”) was tested for their effects on cell death and proliferation on two different tumor cell lines: HeLa, an HPV-18 positive human cervical cancer cell line, and C-33A, an HPV-negative human cervical cancer cell line M4N in DMSO was also tested in parallel. Both tumor cell lines were treated with increasing amounts of M4N: 0 μM, 20 μM, 40 μM, 60 μM and 80 μM, for 72 hr with the DMSO or the CPE formulation. Each formulation was added to total 1% of the growth media (Minimal Essential Medium with L-glutamine supplemented with 10% fetal bovine serum, 1 mM sodium pyruvate, 1× non-essential amino acid solution, and 1,000 IU/mL penicillin/1,000 μg/mL streptomycin solution). Control cells were grown under the same conditions and were left untreated. After 72 hr of treatment or no treatment, the total number of cells and the number of live cells in each sample were counted, using the trypan blue exclusion method. The cell proliferation rate and the percentage of dead cells in each sample were analyzed. Results of this experiment are shown in FIG. 1, FIG. 2, and Tables 6 through 12.
FIG. 1 is a graphical representation of the ratio of the number of treated cells/number of untreated cells plotted against increasing concentrations of M4N in either the DMSO formulation or the CPE formulation for treatment of the C-33A cells and HeLa cells. FIG. 2 is a graphical representation of the percentage of dead cells plotted against increasing concentrations of M4N and in either DMSO formulation or the CPE formulation for treatment of the two cancer cell lines, C-33A and HeLa cells in culture.

[3] = M4N 20 μM in CPE formulation, 72 hr
[4] = M4N 60 μM in CPE formulation, 72 hr
[5] = M4N 80 μM in CPE formulation, 72 hr

COc1ccc(C[C@@H](C)[C@@H](C)Cc2ccc(OC)c(OC)c2)cc1OC [Formulation M4N, meso-1,4-bis(3,4-dimethoxyphenyl)-2,3-dimethylbutane]
Stability at Room Temperature ([1]; 50% Tween ® 20, 50% PEG 400, M4N 30 mg/mL): >3 days
Dissolution After Heating ([1]; 50% Tween ® 20, 50% PEG 400, M4N 30 mg/mL, heating at 65° C.): Y at 65 °C
Stability at Room Temperature ([1]; 50% Tween ® 20, 50% PEG 400, M4N 40 mg/mL): >3 days
Dissolution After Heating ([1]; 50% Tween ® 20, 50% PEG 400, M4N 40 mg/mL, heating at 65° C.): Y at 65 °C
Stability at Room Temperature ([1]; 50% Tween ® 20, 50% PEG 400, M4N 50 mg/mL): >3 days
Dissolution After Heating ([1]; 50% Tween ® 20, 50% PEG 400, M4N 50 mg/mL, heating at 65° C.): Y at 65 °C
Stability at Room Temperature ([1]; 50% Tween ® 20, 50% PEG 400, M4N 60 mg/mL): >3 days
Dissolution After Heating ([1]; 50% Tween ® 20, 50% PEG 400, M4N 60 mg/mL, heating at 65° C.): Y at 65 °C
stable at room temperature ([1]; 50% Tween® 20 and 50% PEG 400, after cooling): more than 3 days
Stability at Room Temperature ([1]; Tween ® 20 100% (v/v), M4N 1 mg/mL): >7 days
Stability at Room Temperature ([1]; Tween ® 20 100% (v/v), M4N 10 mg/mL): >7 days
Dissolution After Heating ([1]; Tween ® 20 100% (v/v), M4N 10 mg/mL, heating at 50° C.): Y at 50 °C
Stability at Room Temperature ([1]; Tween ® 20 100% (v/v), M4N 20 mg/mL): >7 days
Dissolution After Heating ([1]; Tween ® 20 100% (v/v), M4N 20 mg/mL, heating at 50° C.): Y at 50 °C
Stability at Room Temperature ([1]; Tween ® 20 100% (v/v), M4N 40 mg/mL): <3 days
Dissolution After Heating ([1]; Tween ® 20 100% (v/v), M4N 40 mg/mL, heating at 50° C.): Y at 50 °C
Stability at Room Temperature ([1]; Tween ® 20 100% (v/v), M4N 60 mg/mL): <3 days
Dissolution After Heating ([1]; Tween ® 20 100% (v/v), M4N 60 mg/mL, heating at 50° C.): Y at 50 °C
Dissolution After Heating ([1]; Tween ® 20 100% (v/v), M4N 80 mg/mL, heating at 50° C.): Y at 50 °C
Dissolution After Heating ([1]; Tween ® 20 100% (v/v), M4N 100 mg/mL, heating at 50° C.): Y at 50 °C
Stability at Room Temperature ([1]; Tween ® 80 100% (v/v), M4N 1 mg/mL): >3 days
Stability at Room Temperature ([1]; Tween ® 80 100% (v/v), M4N 10 mg/mL): >3 days
Dissolution After Heating ([1]; Tween ® 80 100% (v/v), M4N 10 mg/mL, heating at 50° C.): Y at 50 °C
Stability at Room Temperature ([1]; Tween ® 80 100% (v/v), M4N 50 mg/mL): <1 days
Dissolution After Heating ([1]; Tween ® 80 100% (v/v), M4N 50 mg/mL, heating at 50° C.): Y at 50 °C
stable at room temperature ([1]; Tween® 20, M4N 1 mg/mL): more than 7 days
stable at room temperature ([1]; Tween® 20, M4N 10 mg/mL and 20 mg/mL): more than 7 days
stable at room temperature ([1]; Tween® 20, M4N 40 mg/mL and 80 mg/mL): less than 3 days
solution upon cooling ([1]; Tween® 20, M4N 80 mg/mL and 100 mg/mL): becoming insoluble upon cooling
concentrations at which M4N remained in solution after cooling ([1]; Tween® 20, dissolved at 50° C.): up to 60 mg/mL
stable at room temperature ([1]; Tween® 80, M4N 1 mg/mL): more than 3 days
stable at room temperature ([1]; Tween® 80, M4N 10 mg/mL): more than 3 days
stable at room temperature ([1]; Tween® 80, M4N 50 mg/mL): less than 1 day
concentrations at which M4N remained in solution after cooling ([1]; Tween® 80, dissolved at 50° C.): up to 50 mg/mL
cell death, share of the cell population ([2]; 80 μM or […] M4N in CPE formulation): about 20%
cell death, share of the cell population ([2]; 80 μM or […] M4N in DMSO formulation): about 40%
M4N sufficient to cause about a 50% inhibition in cell proliferation ([2]; CPE formulation, 72 hr): ~7.2 µg/mL
% Dead Cells [2, 3]: 7.0%
% Viability [2, 3]: 93.0%
Proliferation Rate [2, 3]: 0.43
% Dead Cells ([2]; M4N 20 μM in DMSO, 72 hr): 17.4%
% Viability ([2]; M4N 20 μM in DMSO, 72 hr): 82.6%
Proliferation Rate ([2]; M4N 20 μM in DMSO, 72 hr): 0.20
Proliferation Rate ([2]; M4N 40 μM in CPE formulation, 72 hr): 0.43
% Dead Cells ([2]; M4N 40 μM in DMSO, 72 hr): 33.0%
% Viability ([2]; M4N 40 μM in DMSO, 72 hr): 67.0%
Proliferation Rate ([2]; M4N 40 μM in DMSO, 72 hr): 0.15
% Dead Cells [2, 4]: 10.6%
% Viability [2, 4]: 89.4%
Proliferation Rate [2, 4]: 0.22
% Dead Cells ([2]; M4N 60 μM in DMSO, 72 hr): 39.6%
% Viability ([2]; M4N 60 μM in DMSO, 72 hr): 60.4%
Proliferation Rate ([2]; M4N 60 μM in DMSO, 72 hr): 0.14
% Dead Cells [2, 5]: 22.5%
% Viability [2, 5]: 77.5%
Proliferation Rate [2, 5]: 0.15
% Dead Cells ([2]; M4N 80 μM in DMSO, 72 hr): 43.3%
% Viability ([2]; M4N 80 μM in DMSO, 72 hr): 56.7%
Proliferation Rate ([2]; M4N 80 μM in DMSO, 72 hr): 0.11
Cell proliferation rate ([2]; M4N in DMSO or CPE formulation vs non-M4N-treated controls in the same formulation): reduced
